ChEMBL document CHEMBL3872257, “Multitarget drug design strategy against Alzheimer's disease: Homoisoflavonoid Mannich base derivatives serve as acetylcholinesterase and monoamine oxidase B dual inhibitors with multifunctional properties” (Bioorg Med Chem, 2017)

Key:
Homo sapiens = species on record: Homo sapiens; assay: Selectivity index, ratio of IC50 for human recombinant MAO-A to IC50 for human recombinant MAO-B
[1] = Inhibition of copper-mediated aggregation of amyloid beta (1 to 42 residues) (unknown origin) at 25 uM incubated for 24 hrs by thioflavin-T fluorescence assay relative to control; type: physicochemical
[2] = molecular target: T1, Amine oxidase [flavin-containing] A (Homo sapiens, UniProt P21397); assay: Inhibition of human recombinant MAO-A using kynuramine as substrate at 20 uM measured after 30 mins by fluorescence assay relative to control; conditions: 0.5 h
T1 sequence (P21397 whole entry): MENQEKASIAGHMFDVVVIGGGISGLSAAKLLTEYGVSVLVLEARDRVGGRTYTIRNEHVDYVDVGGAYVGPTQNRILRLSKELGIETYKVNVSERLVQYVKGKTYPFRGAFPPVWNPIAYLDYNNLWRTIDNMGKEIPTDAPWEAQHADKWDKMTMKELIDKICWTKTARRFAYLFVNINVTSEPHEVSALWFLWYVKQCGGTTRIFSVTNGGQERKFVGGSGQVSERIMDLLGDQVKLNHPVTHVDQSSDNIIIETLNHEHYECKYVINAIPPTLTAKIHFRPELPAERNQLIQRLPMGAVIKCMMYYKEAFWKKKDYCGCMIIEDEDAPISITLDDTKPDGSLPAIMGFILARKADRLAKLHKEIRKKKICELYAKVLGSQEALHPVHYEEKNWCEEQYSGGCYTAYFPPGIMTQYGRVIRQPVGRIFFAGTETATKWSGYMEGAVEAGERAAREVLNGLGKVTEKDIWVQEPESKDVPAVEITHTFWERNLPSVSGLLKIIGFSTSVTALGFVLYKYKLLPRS

Acetylcholinesterase = Acetylcholinesterase (Electrophorus electricus, UniProt O42275); assay: Inhibition of Electrophorus electricus AChE using acetylthiocholine iodide as substrate measured after 15 mins by Ellman's method
[3] = Antioxidant activity assessed as trolox equivalent of […]-induced radical scavenging activity preincubated for 15 mins followed by AAPH addition measured every minute for 120 mins by ORAC fluorescein assay; type: functional
[4] = molecular target: T2, Amine oxidase [flavin-containing] B (Homo sapiens, UniProt P27338)
T2 sequence (P27338 whole entry): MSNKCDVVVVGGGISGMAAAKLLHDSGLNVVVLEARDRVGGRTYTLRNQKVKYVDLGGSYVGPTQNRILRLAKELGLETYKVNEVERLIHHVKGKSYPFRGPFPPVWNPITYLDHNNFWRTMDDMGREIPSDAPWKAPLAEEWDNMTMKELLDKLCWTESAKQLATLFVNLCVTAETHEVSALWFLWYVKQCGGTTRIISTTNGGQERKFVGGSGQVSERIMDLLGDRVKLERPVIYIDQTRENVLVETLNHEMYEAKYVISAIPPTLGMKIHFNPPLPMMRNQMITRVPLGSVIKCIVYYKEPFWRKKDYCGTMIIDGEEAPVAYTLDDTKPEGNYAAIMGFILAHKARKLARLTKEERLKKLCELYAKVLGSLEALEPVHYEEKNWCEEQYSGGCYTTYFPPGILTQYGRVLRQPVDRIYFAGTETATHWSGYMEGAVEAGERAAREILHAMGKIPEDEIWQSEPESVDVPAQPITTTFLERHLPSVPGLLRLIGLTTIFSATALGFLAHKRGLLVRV
Description: Inhibition of human recombinant MAO-B using kynuramine as substrate measured after 30 mins by fluorescence assay

[5] = molecular target: Butyrylcholinesterase (Rattus norvegicus) (UniProt Q9JKC1); assay: Inhibition of rat serum BuChE at 50 uM measured after 15 mins by Ellman's method relative to control
[6] = molecular target: Amyloid-beta precursor protein (Homo sapiens) (UniProt P05067); assay: Inhibition of self-mediated aggregation of amyloid beta (1 to 42 residues) (unknown origin) at 25 uM incubated for 24 hrs by Thioflavin T fluorescence assay relative to control
[7] = molecular target: T2, Amine oxidase [flavin-containing] B; assay: Inhibition of human recombinant MAO-B using kynuramine as substrate at 20 uM measured after 30 mins by fluorescence assay relative to control; conditions: 0.5 h
[8] = Metal chelating activity assessed as iron-compound complex formation at 37.5 uM in presence of FeSO4 measured after 30 mins by UV-vis spectrometry; type: physicochemical; conditions: 0.5 h
[9] = Permeability of the compound at 100 ug/ml after 18 hrs by PAMPA assay; type: ADME; conditions: read-out: permeability
[10] = Metal chelating activity assessed as copper-compound complex formation at 37.5 uM in presence of CuCl2 measured after 30 mins by UV-vis spectrometry; type: physicochemical; conditions: 0.5 h
[11] = Metal chelating activity assessed as aluminium-compound complex formation at 37.5 uM in presence of AlCl3 measured after 30 mins by UV-vis spectrometry; type: physicochemical; conditions: 0.5 h
[12] = Metal chelating activity assessed as zinc-compound complex formation at 37.5 uM in presence of ZnCl2 measured after 30 mins by UV-vis spectrometry; type: physicochemical; conditions: 0.5 h

Amyloid-beta precursor protein (Homo sapiens), sequence (P05067 whole entry, the tested form may be a part): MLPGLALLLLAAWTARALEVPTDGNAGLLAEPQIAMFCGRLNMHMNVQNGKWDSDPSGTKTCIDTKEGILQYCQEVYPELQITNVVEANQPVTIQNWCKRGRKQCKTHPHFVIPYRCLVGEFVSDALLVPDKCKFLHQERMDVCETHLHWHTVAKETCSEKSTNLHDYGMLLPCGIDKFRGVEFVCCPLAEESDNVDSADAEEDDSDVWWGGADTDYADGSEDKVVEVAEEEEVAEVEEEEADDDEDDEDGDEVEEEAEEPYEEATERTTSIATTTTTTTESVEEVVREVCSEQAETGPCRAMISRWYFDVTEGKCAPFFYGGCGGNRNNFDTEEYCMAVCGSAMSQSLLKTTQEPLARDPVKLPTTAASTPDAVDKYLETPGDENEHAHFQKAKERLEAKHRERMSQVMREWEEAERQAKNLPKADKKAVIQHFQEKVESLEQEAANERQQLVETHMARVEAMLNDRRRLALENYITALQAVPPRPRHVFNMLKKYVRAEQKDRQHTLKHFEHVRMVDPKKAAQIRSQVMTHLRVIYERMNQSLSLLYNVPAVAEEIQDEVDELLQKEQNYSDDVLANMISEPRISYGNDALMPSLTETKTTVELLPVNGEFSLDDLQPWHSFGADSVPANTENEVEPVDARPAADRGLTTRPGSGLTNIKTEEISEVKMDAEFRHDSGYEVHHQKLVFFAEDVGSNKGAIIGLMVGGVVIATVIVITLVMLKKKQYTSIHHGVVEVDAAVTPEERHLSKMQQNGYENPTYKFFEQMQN
Butyrylcholinesterase (Rattus norvegicus), sequence (Q9JKC1 as listed by the source): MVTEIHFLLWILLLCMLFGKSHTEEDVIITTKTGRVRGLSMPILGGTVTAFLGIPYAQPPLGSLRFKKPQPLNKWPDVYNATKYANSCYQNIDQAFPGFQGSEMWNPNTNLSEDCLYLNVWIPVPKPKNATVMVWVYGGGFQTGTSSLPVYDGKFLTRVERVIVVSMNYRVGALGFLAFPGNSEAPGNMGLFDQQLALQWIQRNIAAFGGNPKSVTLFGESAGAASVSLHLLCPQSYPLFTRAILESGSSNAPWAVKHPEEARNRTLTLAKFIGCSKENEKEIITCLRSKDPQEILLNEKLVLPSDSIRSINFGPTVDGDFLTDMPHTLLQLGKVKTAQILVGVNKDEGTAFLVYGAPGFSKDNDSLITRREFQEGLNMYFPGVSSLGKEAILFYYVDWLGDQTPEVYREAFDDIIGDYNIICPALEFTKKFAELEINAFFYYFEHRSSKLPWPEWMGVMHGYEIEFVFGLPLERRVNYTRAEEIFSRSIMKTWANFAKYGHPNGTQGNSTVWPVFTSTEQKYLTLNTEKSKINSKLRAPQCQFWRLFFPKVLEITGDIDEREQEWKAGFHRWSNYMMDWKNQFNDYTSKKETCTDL
Acetylcholinesterase, sequence (O42275 whole entry): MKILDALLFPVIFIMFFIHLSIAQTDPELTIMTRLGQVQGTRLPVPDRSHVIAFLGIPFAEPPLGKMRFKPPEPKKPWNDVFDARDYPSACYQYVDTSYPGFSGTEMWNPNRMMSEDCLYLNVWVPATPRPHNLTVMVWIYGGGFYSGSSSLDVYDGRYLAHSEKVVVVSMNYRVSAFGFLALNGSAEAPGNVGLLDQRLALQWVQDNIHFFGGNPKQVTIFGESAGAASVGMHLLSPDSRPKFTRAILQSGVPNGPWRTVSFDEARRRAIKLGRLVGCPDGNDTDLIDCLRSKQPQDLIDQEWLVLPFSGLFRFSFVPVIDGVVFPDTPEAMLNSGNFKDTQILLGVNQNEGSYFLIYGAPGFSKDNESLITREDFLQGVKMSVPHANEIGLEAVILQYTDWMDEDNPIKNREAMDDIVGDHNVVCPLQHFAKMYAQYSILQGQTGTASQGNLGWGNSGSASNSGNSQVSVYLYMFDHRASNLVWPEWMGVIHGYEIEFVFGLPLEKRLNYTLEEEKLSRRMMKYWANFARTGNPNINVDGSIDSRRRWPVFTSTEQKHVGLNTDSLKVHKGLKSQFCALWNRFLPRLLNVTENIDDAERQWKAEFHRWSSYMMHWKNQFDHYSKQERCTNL

Structure (SMILES)	Ratio IC50 (Homo sapiens)	inhibition (INH) [1] [%]	inhibition [2] [%]	IC50 (Acetylcholinesterase) [nM]	Activity [3] [equiv]	IC50 [4] [nM]	inhibition [5] [%]	inhibition [6] [%]	inhibition at 20 µM [7] [%]	Activity [8]	Papp at 18 h, 100 ug/ml [9] [×10⁻⁶ cm/s]	Activity [10]	Activity [11]	Activity [12]
COc1ccccc1CN(C)Cc1ccc(/C=C2\COc3cc(OC)c(OC)cc3C2=O)cc1O	> 19.4	67.8	12.3	16400	1.78	1030	11.2	37.8	–	–	–	–	–	–
COc1cc2c(cc1OC)C(=O)/C(=C/c1cccc(O)c1)CO2	> 105	30.3	21.9	59300	1.73	190	6.18	20.1	–	–	–	–	–	–
COc1cc2c(cc1OC)C(=O)/C(=C/c1ccc(CN(C)C)c(O)c1)CO2	> 22.7	42.2	8.2	536	1.71	882	< 5	35.2	–	–	–	–	–	–
COc1cc2c(cc1OC)C(=O)/C(=C/c1ccc(O)c(CN3CCCCC3)c1)CO2	> 1.4	49	17	928	2.32	14000	< 5	41.4	–	–	–	–	–	–
COc1ccccc1CN(C)Cc1c(O)cccc1/C=C1\COc2cc(OC)c(OC)cc2C1=O	–	54.9	9.8	33300	1.69	–	16	35.6	43.9	–	–	–	–	–
COc1cc2c(cc1OC)C(=O)/C(=C/c1cccc(O)c1CN1CCOCC1)CO2	–	32.4	2.1	85900	1.52	–	7.85	7.8	18.6	–	–	–	–	–
COc1cc2c(cc1OC)C(=O)/C(=C/c1cccc(O)c1CN1CCN(C)CC1)CO2	–	36.3	6.8	84100	1.83	–	< 5	26.8	29.8	–	–	–	–	–
CCN(Cc1ccccc1)Cc1ccc(/C=C2\COc3cc(OC)c(OC)cc3C2=O)cc1O	> 11.6	49.9	15	364	1.13	1720	< 5	32.7	–	–	–	–	–	–
COc1cc(/C=C/C(=O)CC(=O)/C=C/c2ccc(O)c(OC)c2)ccc1O [CURCUMIN]	–	67.2	–	–	–	–	–	–	–	–	–	–	–	–
COc1cc2c(cc1OC)C(=O)/C(=C/c1ccc(CN3CCN(C)CC3)c(O)c1)CO2	> 21.9	40.5	40.5	6260	2.11	915	< 5	41.9	–	–	–	–	–	–
COc1cc2c(cc1OC)C(=O)/C(=C/c1ccc(CN3CCOCC3)c(O)c1)CO2	> 19.8	38.7	23	1290	1.35	1010	< 5	28.3	–	–	–	–	–	–
CCN(CC)Cc1ccc(/C=C2\COc3cc(OC)c(OC)cc3C2=O)cc1O	> 8.2	40.6	9.5	6.8	1.97	2430	7.72	21.2	–	–	–	–	–	–
CCN(Cc1ccc(/C=C2\COc3cc(OC)c(OC)cc3C2=O)cc1O)Cc1ccccc1N(C)C	> 14.9	79.9	28.3	18100	0.97	1340	44.6	59.6	–	Active	10.5	Active	Active	Active
CCN(CC)Cc1c(O)cccc1/C=C1\COc2cc(OC)c(OC)cc2C1=O	–	29.1	8.5	37400	2.05	–	6.31	20.1	36.7	–	–	–	–	–
COc1cc2c(cc1OC)C(=O)/C(=C/c1ccc(CN(C)Cc3ccccc3)c(O)c1)CO2	> 17.4	42.6	3.4	1990	1.57	1150	< 5	7.7	–	–	–	–	–	–
CCN(Cc1ccc(/C=C2\COc3cc(OC)c(OC)cc3C2=O)cc1O)Cc1ccccc1OC	> 13.3	65.8	14	15700	1.8	1500	22.7	44	–	–	6.05	–	–	–
COc1cc2c(cc1OC)C(=O)/C(=C/c1ccc(CN3CCCC3)c(O)c1)CO2	> 27.7	36.5	16.4	362	1.65	722	24.1	37.3	–	–	11.1	–	–	–
CCN(Cc1ccccc1)Cc1c(O)cccc1/C=C1\COc2cc(OC)c(OC)cc2C1=O	–	28	9.8	172000	1.34	–	< 5	8	38.1	–	–	–	–	–
